Source: patent US11795457B2, “Compositions and methods for treatment of Friedreich's Ataxia” (The Board of Regents of The University of Texas System, priority 2014, dated 2023)
Read-outs that look alike come from different tables or passages of the source. Oligonucleotides are written 5' to 3', each unit as a sugar letter and its base; * is a phosphorothioate linkage, no mark a phosphodiester; rarer units and linkages stand in square brackets, end groups in braces. Plain capitals give the bases only. l = locked nucleic acid (LNA); d = 2'-deoxy (DNA)

Key:
[1] = system: histone H3 and H4 acetylation, FXN mRNA and protein; details: lymphoid cells or primary lymphocytes; cited from earlier work
FXN protein = FXN protein expression by western blot in FRDA patient-derived fibroblast cells; type: cell-based, human; details: GM03816 cells; for FXN protein expression, LNAs: 12.5 nM, day 4 (FIGS. 4B-E)
Experimental: (§1) Tissue culture and transfection of synthetic nucleic acids. Fibroblast cells (Coriell Institute, GM03816 and GM02513) were cultured in minimum essential medium (MEM) supplemented with 10% FBS and 1% NEAA. All cells were grown at 37° C. in 5% Co2. Lipofectamine RNAiMAX (Invitrogen) was used to transfect siRNAs or LNA following the manufacturer's recommended protocol in OptiMEM low serum medium (Invitrogen). Growth media was changed to full medium after 24 h. Transfected cells were harvested 72 h after transfection for RNA extraction and qPCR analyses, and 96 h after transfection for western blot analysis. Sequences of siRNAs and RNAs used in these studies are listed in Table S1 and Table S2, respectively.
Western blot analysis. Cell extracts were prepared using lysis buffer supplemented with 1% Protease Inhibitor Cocktail Set I (Calbiochem) as described previously (Punga & Buhler, 2010). Protein was separated on 4-20% gradient or 15% SDS-PAGE TGX pre-cast gels (BioRad). After gel electrophoresis, proteins were transferred to nitrocellulose membrane (Hybond-C Extra, GE Healthcare Life Sciences) at 100 V for 45-60 min. Membranes were blocked for 30 min at room temperature with 5% milk protein in PBS+0.05% TWEEN-20 (PBST).
Blocked membranes were incubated with the primary antibodies at 4° C. in PBST and 5% milk with rocking overnight: anti-FXN at 1:300 (Abcam, ab110328), anti-tubulin at 1:6000-10000 (Sigma-Aldrich, T5201). After primary antibody incubation, membranes were washed 3 times for 5 min at room temperature with PBST then incubated for 30-45 min at room temperature with HRP-conjugated anti-mouse (Jackson Laboratories, 715-035-150) in PBST+5% milk. Membranes were washed again 3× for 15 min in PBST at room temperature, then protein bands visualized using SuperSignal West Pico Chemiluminescent Substrate (Thermo Scientific). For quantification of protein levels from Western blots of cellular fractions, films were scanned and bands quantified using ImageJ.
HDAC inhibitor and mRNA stability assay. Histone deacetylase inhibitor BML-210 (Abcam) (5 μM) was applied to FRDA fibroblast cells (GM03816) by following the procedure described in Herman et al (2006)^27. Cells were collected for qPCR and Western blot analyses as mentioned above. For mRNA stability assay, cells were transfected with siGAA or CM as above, and 5 μg/mL actinomycin D (Sigma) was added with fresh media 3 day after transfection, and cells were collected at the indicated time points for RNA extraction and qPCR analysis.

FXN mRNA = FXN mRNA expression by quantitative PCR in FRDA patient-derived fibroblast cells; type: cell-based, human; details: GM03816 cells, 5 μM, averaged quadruplicate experiments (FIG. 2B)
Experimental: Tissue culture and transfection of synthetic nucleic acids. Fibroblast cells (Coriell Institute, GM03816 and GM02513) were cultured in minimum essential medium (MEM) supplemented with 10% FBS and 1% NEAA. All cells were grown at 37° C. in 5% Co2. Lipofectamine RNAiMAX (Invitrogen) was used to transfect siRNAs or LNA following the manufacturer's recommended protocol in OptiMEM low serum medium (Invitrogen). Growth media was changed to full medium after 24 h. Transfected cells were harvested 72 h after transfection for RNA extraction and qPCR analyses, and 96 h after transfection for western blot analysis. Sequences of siRNAs and RNAs used in these studies are listed in Table S1 and Table S2, respectively. Quantitative PCR. Identical volumes of RNA (representing approximately the same number of cells and ranging from 1-2 μg of RNA) were treated with 2 units of DNase I (Worthington) in DNase I buffer (10 mM Tris-HCl, pH 7.0, 10 mM NaCl, 2 mM MgCl2, 0.5 mM CaCl2)) for 15 min at room temperature to degrade any genomic DNA contamination. Afterwards, DNase I heat-inactivated at 75° C. for 10 min. Treated RNAs were reverse-transcribed using the High Capacity cDNA Reverse Transcription Kit (Applied Biosystems). Quantitative PCR (qPCR) was performed using SYBR Supermix (Biorad) with ˜50 ng of cDNA as template. Data were normalized relative to measured HPRT levels. […]

frataxin protein = details: patients, daily oral administration, cited from earlier work
Tm of siRNA duplex = type: physicochemical
FXN = FXN expression in FRDA patient-derived cells, mRNA or protein not specified; type: cell-based, human; details: GM03816 cells, 25 nM (FIG. 3B)
Experimental: as §1

[2] = system: interferon responsive genes; experiment: qPCR of interferon responsive genes (off-target); type: cell-based, human; details: GM03816 cells, 25 nM, 3 days after transfection, compared with CM control
Experimental: as §1
Quantitative PCR. Identical volumes of RNA (representing approximately the same number of cells and ranging from 1-2 μg of RNA) were treated with 2 units of DNase I (Worthington) in DNase I buffer (10 mM Tris-HCl, pH 7.0, 10 mM NaCl, 2 mM MgCl2, 0.5 mM CaCl2)) for 15 min at room temperature to degrade any genomic DNA contamination. Afterwards, DNase I heat-inactivated at 75° C. for 10 min. Treated RNAs were reverse-transcribed using the High Capacity cDNA Reverse Transcription Kit (Applied Biosystems). Quantitative PCR (qPCR) was performed using SYBR Supermix (Biorad) with ˜50 ng of cDNA as template. Data were normalized relative to measured HPRT levels.

## Nc1ccccc1NC(=O)CCCCCCC(=O)Nc1ccccc1 [BML210]
[1]
  Acetylation of histone H3 and H4 and FXN mRNA and protein: increased acetylation of histone H3 and H4 leading to upregulation of FXN mRNA and protein
FXN protein; 5 μM, averaged quadruplicate experiments (FIG. 2C)
  FXN protein levels: did not reveal a significant increase
FXN mRNA
  FXN mRNA levels: did not reveal a significant increase

## NC(=O)c1cccnc1 [nicotinamide]
Frataxin protein; 3.8 g
  Increase of frataxin protein concentration: 1.5 times
Frataxin protein; 7-5 g
  Increase of frataxin protein concentration: doubling

## PS-LNA11: LNA with PS backbone complementary to antisense RNA, GAAGAAGAAGAAGAAGAAG (SEQ ID NO: 33) (dG*lA*lA*dG*lA*lA*dG*lA*lA*dG*lA*lA*dG*lA*lA*dG*lA*lA*dG)
FXN protein
  FXN protein expression, LNAs: inert

## PS-LNA12: LNA with PS backbone complementary to antisense RNA, AAGAAGAAGAAGAAGAAGA (SEQ ID NO: 34) (dA*dA*lG*dA*dA*lG*dA*dA*lG*dA*dA*lG*dA*dA*lG*dA*dA*lG*dA)
FXN protein
  FXN protein expression, LNAs: inert

## PS-LNA13: LNA with PS backbone complementary to antisense RNA, AGAAGAAGAAGAAGAAGAA (SEQ ID NO: 35) (lA*dG*lA*lA*dG*lA*lA*dG*lA*lA*dG*lA*lA*dG*lA*lA*dG*lA*lA)
FXN protein
  FXN protein expression, LNAs: inert

## scramble: duplex RNA in which the sequences of siGAA and siAAG are mixed: ss GAGAAAGAGAAAAGGAAAGdTdT (SEQ ID NO: 15), as SEQ ID NO: 16 (sense GAGAAAGAGAAAAGGAAAGNN; antisense CUUUCCUUUUCUCUUUCUCNN; dTdT overhangs; modified_base (20)..(21) n = thymidine; (20)..(21) n is a, c, g, t or u) [reference compound]
Tm of siRNA duplex
  Tm for duplex: 66.13 ^+C

## siAAG5mm: similar to siAAG but has five mismatches: ss AACAATAATACGCAGAAGAdTdT (SEQ ID NO: 17), as SEQ ID NO: 18 (sense AACAATAATACGCAGAAGANN; antisense UCUUCUGCGUAUUAUUGUUNN; dTdT overhangs; modified_base (20)..(21) n = thymidine; (20)..(21) n is a, c, g, t or u) [reference compound]
Tm of siRNA duplex
  Tm for duplex: 63.24 ^+C

## siAAG: duplex RNA: ss AAGAAGAAGAAGAAGAAGAdTdT (SEQ ID NO: 2), as UCUUCUUCUUCUUCUUCUUdTdT (SEQ ID NO: 10) (sense AAGAAGAAGAAGAAGAAGANN; antisense UCUUCUUCUUCUUCUUCUUNN; dTdT overhangs; modified_base (20)..(21) n = thymidine; (20)..(21) n is a, c, g, t or u)
Tm of siRNA duplex
  Tm for duplex: 64.67 ^+C

## siAGA: duplex RNA: ss AGAAGAAGAAGAAGAAGAAdTdT (SEQ ID NO: 11), as UUCUUCUUCUUCUUCUUCUdTdT (SEQ ID NO: 12) (sense AGAAGAAGAAGAAGAAGAANN; antisense UUCUUCUUCUUCUUCUUCUNN; dTdT overhangs; modified_base (20)..(21) n = thymidine; (20)..(21) n is a, c, g, t or u)
Tm of siRNA duplex
  Tm for duplex: 64.3 ^+C

## siExon2: duplex siRNA that targets FXN exon: ss GAGUGUCUAUUUGAUGAAUdTdT (SEQ ID NO: 13), as SEQ ID NO: 14 (sense GAGUGUCUAUUUGAUGAAUNN; antisense AUUCAUCAAAUAGACACUCNN; dTdT overhangs; modified_base (20)..(21) n = thymidine; (20)..(21) n is a, c, g, t or u) [reference compound]
Tm of siRNA duplex
  Tm for duplex: 64.53 ^+C

## siExon3: positive control for transfection efficiency targeting exon 3 of FXN: ss GACCACCUAUGAAAGACUAdTdT (SEQ ID NO: 21), as SEQ ID NO: 22 (sense GACCACCUAUGAAAGACUANN; antisense UAGUCUUUCAUAGGUGGUCNN; dTdT overhangs; modified_base (20)..(21) n = thymidine; (20)..(21) n is a, c, g, t or u) [reference compound]
Tm of siRNA duplex
  Tm for duplex: 73.65 ^+C

## siGAA9,10mm: anti-GAA duplex RNA with central mismatches on both strands: ss GAAGAAGAUCAAGAAGAAGdTdT (SEQ ID NO: 19), as CUUCUUCUUAGUCUUCUUCdTdT (SEQ ID NO: 20) (sense GAAGAAGAUCAAGAAGAAGNN; antisense CUUCUUCUUAGUCUUCUUCDTDT; dTdT overhangs; modified_base (20)..(21) n = thymidine; (20)..(21) n is a, c, g, t or u)
FXN; listed as siGAA 9.10 mm
  Activation of FXN expression by duplex with central mismatches: activates FXN expression at a level similar to the analogous fully complementary duplex RNA
FXN; listed as siGAA9.10 mm
  Activation of FXN expression by duplex with central mismatches: activated FXN expression as well as fully complementary duplexes siGAA or siAAG
Tm of siRNA duplex
  Tm for duplex: 54.4 ^+C

## siGAA: duplex RNA: ss GAAGAAGAAGAAGAAGAAGdTdT (SEQ ID NO: 1), as CUUCUUCUUCUUCUUCUUCdTdT (SEQ ID NO: 9) (sense GAAGAAGAAGAAGAAGAAGNN; antisense CUUCUUCUUCUUCUUCUUCNN; dTdT overhangs; modified_base (20)..(21) n = thymidine; (20)..(21) n is a, c, g, t or u)
FXN protein; day 4 (FIG. 1F)
  FXN protein expression (dose response profile): upregulation of FXN protein expression
Tm of siRNA duplex
  Tm for duplex: 65.64 ^+C
[2]
  mRNA expression of interferon responsive genes: does not induce expression of interferon responsive genes
